Values joined by “and” are separate entries in the source; they are usually repeats but may differ in a detail not shown here. Identical values can stand only once. Inconclusive results and toxic doses are left out.
Test system: P388 leukemia ip, CD2F1 mice, survival T/C
Assay: NCI In Vivo Anticancer Drug Screen. Data for tumor model P388 Leukemia (intraperitoneal) in CD2F1 (CDF1) mice
Details: endpoint: median survival time, higher = longer survival
Method in brief: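 Mice carrying the transplanted tumor received test compound or vehicle. Survival was recorded in each group, and the value is the treated-group measurement divided by that of the vehicle-treated control group.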

[1] = dose: 50.0 mg/kg/injection, schedule: Q01DX009 (ip), vehicle: saline with Tween-80
[2] = dose: 100.0 mg/kg/injection, schedule: Q04DX002 (ip), vehicle: saline with Tween-80
[3] = dose: 200.0 mg/kg/injection, schedule: Q04DX002 (ip), vehicle: saline with Tween-80

For `CCCCN(CCCC)P(=O)(N1CC1)N1CC1`, the T/C (dose: 6.25 mg/kg/injection, schedule: Q01DX009 (ip), vehicle: saline) was 118 % of control, the T/C (dose: 16.5 mg/kg/injection, schedule: Q01DX009 (ip), vehicle: saline) was 175 % of control and the T/C (dose: 100.0 mg/kg/injection, schedule: Q04DX003 (ip), vehicle: saline) was 90 % of control.

In the case of `Cc1cc(N)c(C)c(C)c1O`, the T/C (dose: 25.0 mg/kg/injection, schedule: Q01DX009 (ip), vehicle: saline with Tween-80) was 113 % of control, the T/C (dose: 25.0 mg/kg/injection, schedule: Q04DX003 (ip), vehicle: saline with Tween-80) was 100 % of control and the T/C [1] was 118 % of control. For the same compound, the T/C (dose: 50.0 mg/kg/injection, schedule: Q04DX003 (ip), vehicle: saline with Tween-80) was 110 % of control and the T/C (dose: 100.0 mg/kg/injection, schedule: Q04DX003 (ip), vehicle: saline with Tween-80) was 110 % of control.

`Cc1csc(NC(=S)N(C)C)n1` was tested, and the T/C [2] was 103 % of control, the T/C [3] was 101 % of control and the T/C (dose: 400.0 mg/kg/injection, schedule: Q04DX002 (ip), vehicle: saline with Tween-80) was 101 % of control.

With `CC(=O)C1=C(O)/C(=C\SCc2ccccc2)NC1=O` the T/C (dose: 8.75 mg/kg/injection, schedule: Q01DX005 (ip), vehicle: Klucel (hydroxypropylcellulose) (HPC)) was 105 % of control, the T/C (dose: 17.5 mg/kg/injection, schedule: Q01DX005 (ip), vehicle: Klucel (hydroxypropylcellulose) (HPC)) was 104 % of control and the T/C (dose: 35.0 mg/kg/injection, schedule: Q01DX005 (ip), vehicle: Klucel (hydroxypropylcellulose) (HPC)) was 101 % of control.

In the case of `O=C1c2c(Cl)ccc([N+](=O)[O-])c2C(=O)c2c(Cl)ccc([N+](=O)[O-])c21`, the T/C (dose: 12.5 mg/kg/injection, schedule: Q01DX005 (ip), vehicle: Klucel (hydroxypropylcellulose) (HPC)) was 106 % of control, the T/C (dose: 25.0 mg/kg/injection, schedule: Q01DX005 (ip), vehicle: Klucel (hydroxypropylcellulose) (HPC)) was 104 % of control and the T/C (dose: 50.0 mg/kg/injection, schedule: Q01DX005 (ip), vehicle: Klucel (hydroxypropylcellulose) (HPC)) was 99 % of control and 104 % of control. The T/C (dose: 100.0 mg/kg/injection, schedule: Q01DX005 (ip), vehicle: Klucel (hydroxypropylcellulose) (HPC)) was 94 % of control and the T/C (dose: 200.0 mg/kg/injection, schedule: Q01DX005 (ip), vehicle: Klucel (hydroxypropylcellulose) (HPC)) was 94 % of control.

In the case of `CN(C)c1ccc(C(=O)C2(O)CCCC(C)(C)C2)cc1` (stereo unspecified), the T/C (dose: 100.0 mg/kg/injection, schedule: Q01DX001 (ip), vehicle: Klucel (hydroxypropylcellulose) (HPC)) was 103 % of control, the T/C (dose: 200.0 mg/kg/injection, schedule: Q01DX001 (ip), vehicle: Klucel (hydroxypropylcellulose) (HPC)) was 101 % of control and the T/C (dose: 400.0 mg/kg/injection, schedule: Q01DX001 (ip), vehicle: Klucel (hydroxypropylcellulose) (HPC)) was 101 % of control.

`CN=C(N)N/N=C(\C)c1ccc2c(ccc3ccccc32)c1` was tested, and the T/C (dose: 6.25 mg/kg/injection, schedule: Q04DX002 (ip), vehicle: saline with Tween-80) was 105 % of control and 108 % of control, the T/C (dose: 12.5 mg/kg/injection, schedule: Q04DX002 (ip), vehicle: saline with Tween-80) was 104 % of control and 107 % of control and the T/C (dose: 25.0 mg/kg/injection, schedule: Q04DX002 (ip), vehicle: saline with Tween-80) was 122 % of control. The T/C (dose: 50.0 mg/kg/injection, schedule: Q04DX002 (ip), vehicle: saline with Tween-80) was 123 % of control, the T/C [2] was 123 % of control and the T/C [3] was 107 % of control.

For `CC1(C)NCCc2c1[nH]c1ccccc21`, the T/C (dose: 50.0 mg/kg/injection, schedule: Q04DX002 (ip), vehicle: suspension in saline) was 100 % of control, the T/C (dose: 100.0 mg/kg/injection, schedule: Q04DX002 (ip), vehicle: suspension in saline) was 100 % of control and the T/C (dose: 200.0 mg/kg/injection, schedule: Q04DX002 (ip), vehicle: suspension in saline) was 100 % of control.

With `CC(=O)CC(C)=NCC(C)N=C(C)CC(C)=O.c1cc[c]([Sn][c]2ccccc2)cc1` (stereo unspecified) the T/C (dose: 2.5 mg/kg/injection, schedule: Q01DX009 (ip), vehicle: saline) was 154 % of control, the T/C (dose: 5.0 mg/kg/injection, schedule: Q01DX009 (ip), vehicle: saline) was 158 % of control and 162 % of control and the T/C (dose: 10.0 mg/kg/injection, schedule: Q01DX009 (ip), vehicle: saline) was 185 % of control.

`CSc1nc2c(nnn2C2OC(CO)C(O)C(O)C2O)c(=O)n1C` (stereo unspecified) was tested, and the T/C (dose: 60.0 mg/kg/injection, schedule: Q01DX005 (ip), vehicle: saline) was 97 % of control, the T/C (dose: 120.0 mg/kg/injection, schedule: Q01DX005 (ip), vehicle: saline) was 97 % of control and the T/C (dose: 240.0 mg/kg/injection, schedule: Q01DX005 (ip), vehicle: saline) was 100 % of control.

For `C/C=C(/C(=O)O)S(=O)(=O)O.[Ag]`, the T/C (dose: 20.0 mg/kg/injection, schedule: Q01DX009 (ip), vehicle: saline with Tween-80) was 103 % of control.

In the case of `O=C1OC2(CCCCC2)N(c2ccccc2)C(=O)/C1=C/Nc1ccc(Cl)cc1`, the T/C [1] was 98 % of control, the T/C (dose: 100.0 mg/kg/injection, schedule: Q01DX009 (ip), vehicle: saline with Tween-80) was 99 % of control and the T/C (dose: 200.0 mg/kg/injection, schedule: Q01DX009 (ip), vehicle: saline with Tween-80) was 92 % of control.
